In patent publication US8765152B2, “Pharmaceutical or neutraceutical formulation” (Evonik Roehm GmbH, priority 2010, dated 2014):

What was measured:
[1] = test system: Pancreatin; assay: In-vitro pancreatic enzyme inhibition test, degradation of desmopressin acetate by pancreatin (Example 14); format: biochemical; settings: for desmopressin acetate remaining in presence of pancreatin: control solutions (positive control 1 mg/ml BBI final)
Experimental: In-Vitro Pancreatic Enzyme Inhibition Test of the Preparations of Examples 1, 4 and 5
Inhibition experiments were performed using a new study design considering the dissolution of the pellets.
80 mg of each formulation were stirred in 10 ml of HBSS pH 5.8 at the lowest stirring speed available. The stirring was stopped after 30 min and the suspensions allowed to settle down before an aliquot (2 ml) was drawn and mixed with 2 mL of a solution containing 80 μg·ml^−1 of Desmopressin acetate in HBSS buffer pH 6.5. The pH of the solutions was measured but not adjusted.
As a negative control 2 ml of HBSS buffer were mixed with 2 ml of a solution containing 80 μg·ml^−1 of Desmopressin acetate in HBSS buffer pH 6.5. The pH of the solutions was measured but not adjusted.
As a positive control a solution containing 4 mg of BBI per ml in HBSS was used. 2 ml of the solution were mixed with 2 ml of a solution containing 80 μg·ml^−1 of Desmopressin acetate in HBSS buffer pH 6.5. The pH of the solutions was measured but not adjusted.
200 μL of the prepared solutions were mixed with 200 μl of a Pancreatin solution (20 mg·ml^−1) and incubated for 1, 2 and 3 h at 37° C. Each experiment was performed in triplicate (three individually prepared solutions).
(Final concentrations in the positive control: 1 mg/ml BBI, 20 μg/ml desmopressin actuate and 10 mg/ml pancreatin)
For the 100% value 80 mg pellets were stirred in 10 ml HBSS pH 5.8 for 30 min and homogenized using an ultraturrax. The suspension was stirred for further 15 minutes and allowed to settle down.
The supernatant was collected and further diluted with Desmopressin acetate in HBSS buffer pH 6.5 as described above. The pH of the solutions was measured but not adjusted.
For the starting values (t0) the mixture was directly added to 400 μl of acetonitrile and diluted with 1200 μL of HBSS buffer pH 6.5. The solution were analysed by HPLC using a RP-18-column as a stationary phase and a water/acetonitrile-mixture (80:20) as eluent phase at a wavelength of 220 nm.

[2] = test system: Caco-2-cell monolayer; assay: TEER, cationic penetration promotor/anionic active ingredient mixtures (Example 18); format: cell-based
Experimental: TEER-Testing was performed analogous to example 12.
The following mixtures in HBSS-buffers were tested
Desmopressin acetate=Desmo,
EUDRAGIT® E Carbonate=E (s. description: carbonated amino(meth)acrylate copolymer)
Bowman Birk Inhibitor=BBI
Heparin: Low molecular weight heparin (LMW-Heparine); Fraxiparin™ (Nadroparin calcium); 0.6 ml ready to use syringe for subcutaneous injection (5700 IU anti-Xa/mg); Ch.B.: 3394-1; Glaxo Smith Kline

[3] = test system: Caco-2-cell monolayer; assay: TEER, pure penetration promotor, Caco-2 cell monolayer (Example 17); format: cell-based; settings: positive control 0.1%
Experimental: The penetration promoter in the sense of the present invention may be defined by reducing the initial TEER-value of the buffer solution without penetration promotor (100%) to 50% or less, preferably 40% or less, preferably 30% or less, preferably 20% or less in the presence of the penetration promotor at a concentration of 1 mg/ml after 60 min measured in a Caco-2-cell monolayer culture as transport barrier.
TEER-Testing was performed analogous to example 12. EUDRAGIT® E acetate=EUDRAGIT® E dissolved in water by addition of acetic acid until clear solution was obtained; EUDRAGIT® E PO base=dispersion of EUDRAGIT® E PO (powder form of EUDRAGIT® E) in water (not dissolved); chitosan acetate=chitosan dissolved in water by addition of acetic acid until clear solution was obtained.

[4] = orally ingested; cited from earlier work
[5] = listed as buffer (baseline), mean of n = 3

## NC(=O)CC[C@@H]1NC(=O)[C@H](Cc2ccccc2)NC(=O)[C@H](Cc2ccc(O)cc2)NC(=O)CCSSC[C@@H](C(=O)N2CCC[C@H]2C(=O)N[C@H](CCCN=C(N)N)C(=O)NCC(N)=O)NC(=O)[C@H](CC(N)=O)NC1=O [Desmopressin acetate]
[1]; 0 min
  desmopressin acetate remaining in presence of pancreatin: 100.00%
[1]; 60 min
  desmopressin acetate remaining in presence of pancreatin: 61.79%
[1]; 120 min
  desmopressin acetate remaining in presence of pancreatin: 50.51%
[1]; 180 min
  desmopressin acetate remaining in presence of pancreatin: 33.54%
[1]; in the absence of the BBI, time not stated
  recovery of desmopressin: more than 60%

## NC(=O)CC[C@@H]1NC(=O)[C@H](Cc2ccccc2)NC(=O)[C@H](Cc2ccc(O)cc2)NC(=O)CCSSC[C@@H](C(=O)N2CCC[C@H]2C(=O)N[C@H](CCCN=C(N)N)C(=O)NCC(N)=O)NC(=O)[C@H](CC(N)=O)NC1=O [Example 18c, Desmopressin acetate]
[2]; 0 min
  TEER in % of TEER in Medium during the test: 119%
[2]; 15 min
  TEER in % of TEER in Medium during the test: 111%
[2]; 30 min
  TEER in % of TEER in Medium during the test: 115%
[2]; 60 min
  TEER in % of TEER in Medium during the test: 111%
[2]; 90 min
  TEER in % of TEER in Medium during the test: 118%
[2]; 120 min
  TEER in % of TEER in Medium during the test: 119%
[2]; 240 min
  TEER in % of TEER in Medium during the test: 109%
[2]; [5]
  TEER in % of TEER in Medium during the test: 123%

## CCCCCCCCCCCCOS(=O)(=O)[O-].[Na+] [Example 18h, Sodiumdodecylsufate]
[3]; 5 min
  Mean-TEER: 12%
[3]; 60 min
  Mean-TEER: 4%
[3]; 120 min
  Mean-TEER: 10%
[3]; 180 min
  Mean-TEER: 12%
[3]; 240 min
  Mean-TEER: 15%
[3]; HBSS (0 min)
  Mean-TEER: 100%
[2]; 0 min
  TEER in % of TEER in Medium during the test: 22%
[2]; 15 min
  TEER in % of TEER in Medium during the test: 16%
[2]; 30 min
  TEER in % of TEER in Medium during the test: 16%
[2]; 60 min
  TEER in % of TEER in Medium during the test: 12%
[2]; 90 min
  TEER in % of TEER in Medium during the test: 16%
[2]; 120 min
  TEER in % of TEER in Medium during the test: 12%
[2]; 240 min
  TEER in % of TEER in Medium during the test: 13%
[2]; [5]
  TEER in % of TEER in Medium during the test: 123%

## Nadroparin calcium [Example 18d]
[2]; 0 min
  TEER in % of TEER in Medium during the test: 110%
[2]; 15 min
  TEER in % of TEER in Medium during the test: 102%
[2]; 30 min
  TEER in % of TEER in Medium during the test: 106%
[2]; 60 min
  TEER in % of TEER in Medium during the test: 105%
[2]; 90 min
  TEER in % of TEER in Medium during the test: 112%
[2]; 120 min
  TEER in % of TEER in Medium during the test: 111%
[2]; 240 min
  TEER in % of TEER in Medium during the test: 104%
[2]; [5]
  TEER in % of TEER in Medium during the test: 118%

B1: BBI: Bowman-Birk inhibitor from soy bean source (Sigma Aldrich); trypsin and chymotrypsin inhibitor (protein, UniProt P01055 40-110, looked up)
Bowman-Birk type proteinase …: DDESSKPCCDQCACTKSNPPQCRCSDMRLNSCHSACKSCICALSYPAQCFCVDITDFCYEPCKPSEDDKEN
[1]; 0 min
  desmopressin acetate remaining in presence of pancreatin: 100.00%
[1]; 60 min
  desmopressin acetate remaining in presence of pancreatin: 98.82%
[1]; 120 min
  desmopressin acetate remaining in presence of pancreatin: 94.48%
[1]; 180 min
  desmopressin acetate remaining in presence of pancreatin: 85.25%
[1]; n=3
  inhibition of degradation of desmopressin acetate by pancreatin (in words): remarkably reduce the degradation
[4]
  ingested bowman birk inhibitor absorbed in to the bloodstream: Approximately 50%
